Measurements published in patent US10457709B2, “Antimicrobial peptides, their variants and uses” (priority 2015, dated 2019).
Like-named read-outs stand apart in the source and are kept apart here. Square brackets hold non-standard residues; d marks the D form. Peptide text beside a SMILES is read from it.

Columns and labels:
[1] = tested on: Candida albicans clinical strains; experiment: MIC, clinical yeast strains; type: cell-based; parameters: unit: μg/ml
Outline: (§1)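 Clinical isolates tested by broth microdilution at 5.0×10^5 cfu/ml with peptides at 0.125–128 μg/ml, incubated 20–24 h at 37° C. Bacteria were grown in Mueller Hinton broth and yeasts in potato dextrose broth. MIC is the lowest concentration showing no visible growth.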

[2] = tested on: C. parapsilosis clinical strains; experiment: MIC, clinical yeast strains; type: cell-based, Candida parapsilosis; parameters: unit: µg/ml
Outline: as §1

[3] = tested on: Serratia marcescens clinical strains; type: cell-based; parameters: Minimum inhibitory concentration: unit: μg/ml; details: microdilution, Muller Hinton broth-cation adjusted, 0.02% BSA, 0.2% acetic acid
Outline: as §1

[4] = tested on: Enterobacter cloacae clinical strains; type: cell-based; parameters: Minimum inhibitory concentration: unit: μg/ml; details: microdilution, Muller Hinton broth-cation adjusted, 0.02% BSA, 0.2% acetic acid
Outline: as §1

[5] = tested on: Proteus mirabilis clinical strains; type: cell-based; parameters: Minimum inhibitory concentration: unit: μg/ml; details: microdilution, Muller Hinton broth-cation adjusted, 0.02% BSA, 0.2% acetic acid
Outline: as §1

[6] = tested on: Streptococcus pneumoniae clinical strains; type: cell-based; parameters: Minimum inhibitory concentration: unit: μg/ml; details: microdilution, Muller Hinton broth-cation adjusted, 0.02% BSA, 0.2% acetic acid
Outline: as §1

[7] = tested on: Staphylococcus aureus clinical strains; type: cell-based; parameters: Minimum inhibitory concentration: unit: μg/ml; details: microdilution, Muller Hinton broth-cation adjusted, 0.02% BSA, 0.2% acetic acid
Outline: as §1

[8] = tested on: C. quillermondiae clinical strains; experiment: MIC, clinical yeast strains; type: cell-based, Candida quillermondiae; parameters: unit: μg/ml; details: C. quillermondiae clinical yeast strain 1
Outline: as §1

[9] = tested on: C. glabrata clinical strains; experiment: MIC, clinical yeast strains; type: cell-based, Candida glabrata; parameters: unit: µg/ml
Outline: as §1

[10] = tested on: Klebsiella pneumoniae clinical strains; type: cell-based; details: microdilution, Muller Hinton broth-cation adjusted, 0.02% BSA, 0.2% acetic acid
Outline: as §1

[11] = tested on: Pseudomonas aeruginosa clinical strains; type: cell-based; details: microdilution, Muller Hinton broth-cation adjusted, 0.02% BSA, 0.2% acetic acid
Outline: as §1

[12] = tested on: Escherichia coli clinical strains; type: cell-based; details: microdilution, Muller Hinton broth-cation adjusted, 0.02% BSA, 0.2% acetic acid
Outline: as §1

CC[C@@H](C)[C@@H](N)C(=O)N[C@H](Cc1c[nH]c2ccccc12)C(=O)N[C@H](CCCCN)C(=O)N[C@H](CCCNC(=N)N)C(=O)N[C@H](Cc1ccccc1)C(=O)N[C@H](CCCNC(=N)N)C(=O)N[C@H](CC(C)C)C(=O)N[C@H](Cc1ccccc1)C(=O)N[C@H](CCCCN)C(=O)N[C@H](CCCCN)C(=O)N[C@H](Cc1c[nH]c2ccccc12)C(=O)O [Chain304D] (H-[dI][dW][dK][dR][dF][dR][dL][dF][dK][dK][dW]-OH)
Minimum inhibitory concentration ([1]; Candida albicans clinical yeast strain 1): 16
Minimum inhibitory concentration ([1]; Candida albicans clinical yeast strain 2): 16
Minimum inhibitory concentration ([1]; Candida albicans clinical yeast strain 3): 16
Minimum inhibitory concentration ([1]; Candida albicans clinical yeast strain 4): 16
Minimum inhibitory concentration ([1]; Candida albicans clinical yeast strain 5): 32
Minimum inhibitory concentration ([2]; C. parapsilosis clinical yeast strain 1): 64
Minimum inhibitory concentration ([2]; C. parapsilosis clinical yeast strain 2): 64
Minimum inhibitory concentration ([2]; C. parapsilosis clinical yeast strain 3): 32
Minimum inhibitory concentration ([2]; C. parapsilosis clinical yeast strain 4): 16
Minimum inhibitory concentration ([3]; Serratia marcescens clinical strain 1): >128
Minimum inhibitory concentration ([3]; Serratia marcescens clinical strain 2): >128
Minimum inhibitory concentration ([3]; Serratia marcescens clinical strain 3): >128
Minimum inhibitory concentration ([3]; Serratia marcescens clinical strain 4): >128
Minimum inhibitory concentration ([3]; Serratia marcescens clinical strain 5): >128
Minimum inhibitory concentration ([4]; Enterobacter cloacae clinical strain 1): 64
Minimum inhibitory concentration ([4]; Enterobacter cloacae clinical strain 2): 64
Minimum inhibitory concentration ([4]; Enterobacter cloacae clinical strain 3): 128
Minimum inhibitory concentration ([4]; Enterobacter cloacae clinical strain 4): 128
Minimum inhibitory concentration ([4]; Enterobacter cloacae clinical strain 5): 32
Minimum inhibitory concentration ([5]; Proteus mirabilis clinical strain 1): >128
Minimum inhibitory concentration ([5]; Proteus mirabilis clinical strain 2): >128
Minimum inhibitory concentration ([5]; Proteus mirabilis clinical strain 3): >128
Minimum inhibitory concentration ([5]; Proteus mirabilis clinical strain 4): >128
Minimum inhibitory concentration ([5]; Proteus mirabilis clinical strain 5): >128
Minimum inhibitory concentration ([6]; Streptococcus pneumoniae clinical strain 1): 128
Minimum inhibitory concentration ([6]; Streptococcus pneumoniae clinical strain 2): 128
Minimum inhibitory concentration ([6]; Streptococcus pneumoniae clinical strain 3): 128
Minimum inhibitory concentration ([6]; Streptococcus pneumoniae clinical strain 4): 128
Minimum inhibitory concentration ([6]; Streptococcus pneumoniae clinical strain 5): 64
Minimum inhibitory concentration ([7]; Staphylococcus aureus clinical strain 1): 32
Minimum inhibitory concentration ([7]; Staphylococcus aureus clinical strain 2): 32
Minimum inhibitory concentration ([7]; Staphylococcus aureus clinical strain 3): 16
Minimum inhibitory concentration ([7]; Staphylococcus aureus clinical strain 4): 16
Minimum inhibitory concentration ([7]; Staphylococcus aureus clinical strain 5): 16
Minimum inhibitory concentration [8]: 16
Minimum inhibitory concentration ([9]; C. glabrata clinical yeast strain 1): 16
Minimum inhibitory concentration ([9]; C. glabrata clinical yeast strain 2): 16
Minimum inhibitory concentration ([9]; C. glabrata clinical yeast strain 3): 8
Minimum inhibitory concentration ([9]; C. glabrata clinical yeast strain 4): 64
Minimum inhibitory concentration ([10]; Klebsiella pneumoniae clinical strain 1): >128
Minimum inhibitory concentration ([10]; Klebsiella pneumoniae clinical strain 2): >128
Minimum inhibitory concentration ([10]; Klebsiella pneumoniae clinical strain 3): >128
Minimum inhibitory concentration ([10]; Klebsiella pneumoniae clinical strain 4): >128
Minimum inhibitory concentration ([10]; Klebsiella pneumoniae clinical strain 5): 64
Minimum inhibitory concentration ([11]; Pseudomonas aeruginosa clinical strain 1): 32
Minimum inhibitory concentration ([11]; Pseudomonas aeruginosa clinical strain 2): 64
Minimum inhibitory concentration ([11]; Pseudomonas aeruginosa clinical strain 3): 64
Minimum inhibitory concentration ([11]; Pseudomonas aeruginosa clinical strain 4): 64
Minimum inhibitory concentration ([11]; Pseudomonas aeruginosa clinical strain 5): 16
Minimum inhibitory concentration ([12]; Escherichia coli clinical strain 1): 1
Minimum inhibitory concentration ([12]; Escherichia coli clinical strain 2): 16
Minimum inhibitory concentration ([12]; Escherichia coli clinical strain 3): 16
Minimum inhibitory concentration ([12]; Escherichia coli clinical strain 4): 32
Minimum inhibitory concentration ([12]; Escherichia coli clinical strain 5): 32
